Laboratory results published in ChEMBL document CHEMBL1123871, “Methotrexate analogues. 30. Dihydrofolate reductase inhibition and in vitro tumor cell growth inhibition by N epsilon-(haloacetyl)-L-lysine and N delta-(haloacetyl)-L-ornithine analogues and an acivicin analogue of methotrexate” (J Med Chem, 1987).

What was measured:
Dihydrofolate reductase = target: T1, Dihydrofolate reductase (Mus musculus, UniProt P00375)
T1 sequence (P00375 whole entry): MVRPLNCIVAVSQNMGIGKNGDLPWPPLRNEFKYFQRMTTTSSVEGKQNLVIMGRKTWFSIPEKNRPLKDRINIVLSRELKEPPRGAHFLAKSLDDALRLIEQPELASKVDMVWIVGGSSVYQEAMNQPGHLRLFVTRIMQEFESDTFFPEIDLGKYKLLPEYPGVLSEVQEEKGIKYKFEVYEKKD
Description: Inhibition of dihydrofolate reductase(DHFR) from L1210/R81 cells

L1210 [1] = assay: Inhibition of L1210 cultured murine leukemia cell growth; assay type: functional, cell-based; conditions: Mus musculus
[2] = Fold resistance calculated by dividing the IC50(L1210/R81) by the IC50(L1210)
L1210 [3] = assay: Inhibition of L1210/R81 murine leukemia cell growth; assay type: functional, cell-based; conditions: Mus musculus

| IC50 (Dihydrofolate reductase) | IC50 (L1210 [1]) | Resistance [2] | IC50 (L1210 [3]) | Structure (SMILES) |
| --- | --- | --- | --- | --- |
| 72 nM | 96 nM | 2500 | 240 nM | CN(Cc1cnc2nc(N)nc(N)c2n1)c1ccc(C(=O)NC(CCCCNC(=O)CBr)C(=O)O)cc1 (stereo not drawn) |
| 46 nM | 126 nM | 1200 | 155 nM | CN(Cc1cnc2nc(N)nc(N)c2n1)c1ccc(C(=O)NC(CCCNC(=O)CBr)C(=O)O)cc1 (stereo not drawn) |
| 32 nM | 33 nM | 2800 | 93 nM | CN(Cc1cnc2nc(N)nc(N)c2n1)c1ccc(C(=O)NC(CCCCNC(=O)CCl)C(=O)O)cc1 (stereo not drawn) |
| 32 nM | 62 nM | 1700 | 105 nM | CN(Cc1cnc2nc(N)nc(N)c2n1)c1ccc(C(=O)NC(CCCNC(=O)CCl)C(=O)O)cc1 (stereo not drawn) |

| Structure (SMILES) | IC50 (Dihydrofolate reductase) | IC50 (L1210 [1]) | Resistance [2] | IC50 (L1210 [3]) |
| --- | --- | --- | --- | --- |
| CN(Cc1cnc2nc(N)nc(N)c2n1)c1ccc(C(=O)N[C@@H](CCC(=O)O)C(=O)O)cc1 [METHOTREXATE] |  | 5 nM | 44000 |  |
